Reference: PubChem BioAssay (NCI)
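Cultured in 96-well plates, cells were exposed to test compound for 48 hours across five concentrations. Here, GI50 denotes the concentration required for 50% inhibition of growth. TGI marks complete inhibition of growth.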

Legend:
Experiment in all cases: NCI-60 cell line screen, 48 h
786-0 renal = tested on: 786-0 renal
A498 renal = tested on: A498 renal
A549 NSCLC = tested on: A549 NSCLC
ACHN renal = tested on: ACHN renal
BT-549 breast = tested on: BT-549 breast
CAKI-1 renal = tested on: CAKI-1 renal
CCRF-CEM leukemia = tested on: CCRF-CEM leukemia
COLO 205 colon = tested on: COLO 205 colon
DU-145 prostate = tested on: DU-145 prostate
EKVX NSCLC = tested on: EKVX NSCLC
HCC-2998 colon = tested on: HCC-2998 colon
HCT-15 colon = tested on: HCT-15 colon
HL-60(TB) leukemia = tested on: HL-60(TB) leukemia
HOP-62 NSCLC = tested on: HOP-62 NSCLC
HOP-92 NSCLC = tested on: HOP-92 NSCLC
HS 578T breast = tested on: HS 578T breast
HT29 colon = tested on: HT29 colon
IGROV1 ovarian = tested on: IGROV1 ovarian
KM12 colon = tested on: KM12 colon
LOX IMVI melanoma = tested on: LOX IMVI melanoma
M14 melanoma = tested on: M14 melanoma
MALME-3M melanoma = tested on: MALME-3M melanoma
MCF7 breast = tested on: MCF7 breast
MDA-MB-231 breast = tested on: MDA-MB-231 breast
MDA-MB-435 = tested on: MDA-MB-435
MOLT-4 leukemia = tested on: MOLT-4 leukemia
NCI-H226 lung = tested on: NCI-H226 lung
NCI-H23 lung = tested on: NCI-H23 lung

Compound `O=C1Nc2ccc(Cl)cc2/C1=C\c1c(-c2ccc(F)cc2)nc2ccccn12` has a GI50 (786-0 renal) of 2.18 µM, a TGI (786-0 renal) of 5.2 µM and a GI50 (A498 renal) of 1.21 µM. For the same compound, the TGI (A498 renal) was 4.51 µM, the GI50 (A549 NSCLC) was 2.14 µM and the TGI (A549 NSCLC) was 5.17 µM. The GI50 (ACHN renal) was 3.25 µM, the TGI (ACHN renal) was 11.4 µM and the GI50 (BT-549 breast) was 2.46 µM. The TGI (BT-549 breast) was 6.72 µM, the GI50 (CAKI-1 renal) was 2.25 µM and the TGI (CAKI-1 renal) was 6.45 µM. For the same compound, the GI50 (CCRF-CEM leukemia) was 2.31 µM, the TGI (CCRF-CEM leukemia) was 7.24 µM and the GI50 (COLO 205 colon) was 4.03 µM. The TGI (COLO 205 colon) was 13.6 µM, the GI50 (DU-145 prostate) was 2.67 µM and the TGI (DU-145 prostate) was 7.15 µM. It also gave a GI50 (EKVX NSCLC) of 3.08 µM, a TGI (EKVX NSCLC) of 58.1 µM and a GI50 (HCC-2998 colon) of 2.01 µM. The TGI (HCC-2998 colon) was 5.1 µM, the GI50 (HCT-15 colon) was 3.15 µM and the TGI (HCT-15 colon) was 16.2 µM. It also gave a GI50 (HL-60(TB) leukemia) of 1.88 µM, a TGI (HL-60(TB) leukemia) of 4.48 µM and a GI50 (HOP-62 NSCLC) of 2.35 µM. For the same compound, the TGI (HOP-62 NSCLC) was 6.32 µM, the GI50 (HOP-92 NSCLC) was 1.86 µM and the TGI (HOP-92 NSCLC) was 7.1 µM. The GI50 (HS 578T breast) was 2.2 µM, the TGI (HS 578T breast) was 8.37 µM and the GI50 (HT29 colon) was 2.33 µM. For the same compound, the TGI (HT29 colon) was 5.41 µM, the GI50 (IGROV1 ovarian) was 3.06 µM and the TGI (IGROV1 ovarian) was 8.58 µM. For the same compound, the GI50 (KM12 colon) was 2.04 µM, the TGI (KM12 colon) was 4.61 µM and the GI50 (LOX IMVI melanoma) was 2.06 µM. The TGI (LOX IMVI melanoma) was 4.89 µM, the GI50 (M14 melanoma) was 3.02 µM and the TGI (M14 melanoma) was 8.62 µM. For the same compound, the GI50 (MALME-3M melanoma) was 3.8 µM, the TGI (MALME-3M melanoma) was 14.8 µM and the GI50 (MCF7 breast) was 2.71 µM. The TGI (MCF7 breast) was 10.7 µM, the GI50 (MDA-MB-231 breast) was 3.5 µM and the TGI (MDA-MB-231 breast) was 36.6 µM. It also gave a GI50 (MDA-MB-435) of 1.99 µM, a TGI (MDA-MB-435) of 5.03 µM and a GI50 (MOLT-4 leukemia) of 2.89 µM. For the same compound, the TGI (MOLT-4 leukemia) was 8.13 µM, the GI50 (NCI-H226 lung) was 2.07 µM and the TGI (NCI-H226 lung) was 5.21 µM. It also gave a GI50 (NCI-H23 lung) of 2.37 µM and a TGI (NCI-H23 lung) of 7.57 µM.
